Data: ChEMBL document CHEMBL1177858, “Cytotoxicity and topo I targeting activity of substituted 10--nitrogenous heterocyclic aromatic group derivatives of SN-38” (Eur J Med Chem, 2010)

Legend:
[1] = system: MCF7; experiment: Cytotoxicity against human MCF7 cells after 3 days by MTT assay; assay type: functional, cell-based
[2] = system: KB; experiment: Cytotoxicity against human KB cells after 3 days by MTT assay; assay type: functional, cell-based
[3] = system: HCT-8; experiment: Cytotoxicity against human HCT8 cells after 3 days by MTT assay; assay type: functional, cell-based
[4] = biological target: T1, DNA topoisomerase 1 (Homo sapiens) (UniProt P11387); experiment: Inhibition of topoisomerase 1-mediated supercoiled pBR322 relaxation assessed as change in band intensity by electrophoresis relative to camptothecin; also: test concentration or dose not given here
T1 sequence (whole entry): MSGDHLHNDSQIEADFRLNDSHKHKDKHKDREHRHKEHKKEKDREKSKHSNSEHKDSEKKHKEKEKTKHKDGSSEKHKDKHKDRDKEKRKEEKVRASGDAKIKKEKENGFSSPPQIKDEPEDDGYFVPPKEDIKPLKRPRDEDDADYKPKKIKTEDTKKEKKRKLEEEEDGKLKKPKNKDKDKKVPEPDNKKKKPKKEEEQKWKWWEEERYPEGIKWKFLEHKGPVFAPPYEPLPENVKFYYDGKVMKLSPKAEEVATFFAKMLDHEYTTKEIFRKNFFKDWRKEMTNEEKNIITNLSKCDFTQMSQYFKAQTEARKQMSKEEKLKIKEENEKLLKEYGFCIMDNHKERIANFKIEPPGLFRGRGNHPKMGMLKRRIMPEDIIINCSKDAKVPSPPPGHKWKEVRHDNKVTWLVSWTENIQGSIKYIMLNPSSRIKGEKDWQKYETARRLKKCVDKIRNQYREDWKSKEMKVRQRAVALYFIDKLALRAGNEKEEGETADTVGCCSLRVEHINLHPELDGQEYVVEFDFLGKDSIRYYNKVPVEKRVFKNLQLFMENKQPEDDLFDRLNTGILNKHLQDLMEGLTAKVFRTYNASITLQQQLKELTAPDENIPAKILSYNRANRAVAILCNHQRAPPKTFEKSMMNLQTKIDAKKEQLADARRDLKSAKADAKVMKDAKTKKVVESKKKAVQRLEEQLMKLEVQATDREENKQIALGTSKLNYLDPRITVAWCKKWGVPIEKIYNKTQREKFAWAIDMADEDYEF

| Structure (SMILES) | IC50 [1] [nM/ml] | IC50 [2] [nM/ml] | IC50 [3] [nM/ml] | fold change (FC) [4] |
| --- | --- | --- | --- | --- |
| CCc1c2c(nc3ccc(OCCC[n+]4ccccc4)cc13)-c1cc3c(c(=O)n1C2)COC(=O)[C@]3(O)CC.[Br-] | 0.14 | 0.02 | 0.04 | 0.96 |
| CC[C@@]1(O)C(=O)OCc2c1cc1n(c2=O)Cc2cc3cc(OCCCn4cncn4)ccc3nc2-1 | 0.62 |  | 0.9 | 0.62 |
| CC[C@@]1(O)C(=O)OCc2c1cc1n(c2=O)Cc2cc3cc(OCCCn4cnc5cncnc54)ccc3nc2-1 | 2.09 |  | 1.81 | 0.61 |
| CCc1c2c(nc3ccc(OCCCn4cncn4)cc13)-c1cc3c(c(=O)n1C2)COC(=O)[C@]3(O)CC | 0.08 | 0.04 | 0.04 | 0.64 |
| CCc1c2c(nc3ccc(OCC[n+]4ccccc4)cc13)-c1cc3c(c(=O)n1C2)COC(=O)[C@]3(O)CC.[Br-] | 1.56 | 0.08 | 0.52 | 1.12 |
| CCc1c2c(nc3ccc(OCC[n+]4cccc(CO)c4)cc13)-c1cc3c(c(=O)n1C2)COC(=O)[C@]3(O)CC.[Br-] | 1.74 | 0.61 | 0.85 | 1.02 |
| CC[C@@]1(O)C(=O)OCc2c1cc1n(c2=O)Cc2cc3c(CN(C)C)c(O)ccc3nc2-1 [TOPOTECAN] | 0.15 | 0.07 | 0.07 |  |
| CCc1c2c(nc3ccc(OCC[n+]4cccc(C(C)=O)c4)cc13)-c1cc3c(c(=O)n1C2)COC(=O)[C@]3(O)CC.[Br-] | 0.26 | 0.09 | 0.09 | 0.97 |
| CCc1c2c(nc3ccc(OCC[n+]4cccc(F)c4)cc13)-c1cc3c(c(=O)n1C2)COC(=O)[C@]3(O)CC.[Br-] | 0.25 | 0.19 | 0.1 | 1.07 |
| CC[C@@]1(O)C(=O)OCc2c1cc1n(c2=O)Cc2cc3cc(OCCCOc4cc(C(F)(F)F)ncn4)ccc3nc2-1 | 0.18 |  | 0.18 | 0.67 |
| CC[C@@]1(O)C(=O)OCc2c1cc1n(c2=O)Cc2cc3cc(OCCC[n+]4cccc(C)c4)ccc3nc2-1.[Br-] |  | < 0.01 | < 0.01 | 0.72 |
| CCc1c2c(nc3ccc(OCC[n+]4cccc(C)c4)cc13)-c1cc3c(c(=O)n1C2)COC(=O)[C@]3(O)CC.[Br-] | 5.04 | 0.06 | 0.27 | 1.07 |
| CC[C@@]1(O)C(=O)OCc2c1cc1n(c2=O)Cc2cc3ccccc3nc2-1 [CAMPTOTHECIN] | 0.02 | < 0.013 | < 0.013 | 1 |
| CC[C@@]1(O)C(=O)OCc2c1cc1n(c2=O)Cc2cc3cc(OCCC[n+]4ccccc4)ccc3nc2-1.[Br-] |  | 0.06 | 0.07 | 0.7 |
| CC[C@@]1(O)C(=O)OCc2c1cc1n(c2=O)Cc2cc3cc(OCCCn4ccnc4)ccc3nc2-1 | 0.38 |  | 0.98 | 0.7 |
| CC[C@@]1(O)C(=O)OCc2c1cc1n(c2=O)Cc2cc3cc(OCC[n+]4cccc(C(C)=O)c4)ccc3nc2-1.[Br-] |  | 6.28 | 5.88 | 1.04 |
| CCc1c2c(nc3ccc(OCCCOc4cc(C(F)(F)F)ncn4)cc13)-c1cc3c(c(=O)n1C2)COC(=O)[C@]3(O)CC | 0.08 | 0.02 | 0.07 | 0.59 |
| CCc1c2c(nc3ccc(OCCC[n+]4cccc(C)c4)cc13)-c1cc3c(c(=O)n1C2)COC(=O)[C@]3(O)CC.[Br-] | 0.11 | < 0.01 | < 0.01 | 0.97 |
| CC[C@@]1(O)C(=O)OCc2c1cc1n(c2=O)Cc2cc3cc(OCC[n+]4cccc(F)c4)ccc3nc2-1.[Br-] |  | 0.68 | 0.73 | 0.85 |
| CCc1c2c(nc3ccc(OCCC[n+]4cccc(F)c4)cc13)-c1cc3c(c(=O)n1C2)COC(=O)[C@]3(O)CC.[Br-] | 1.92 | 1.9 | 0.43 | 0.92 |
| CC[C@@]1(O)C(=O)OCc2c1cc1n(c2=O)Cc2cc3cc(OCC[n+]4cccc(C)c4)ccc3nc2-1.[Br-] |  | 1.3 | 2.95 | 1.02 |
| CC[C@@]1(O)C(=O)OCc2c1cc1n(c2=O)Cc2cc3cc(OCC[n+]4cccc(CO)c4)ccc3nc2-1.[Br-] |  | 6.57 | 7.49 | 0.7 |
| CC[C@@]1(O)C(=O)OCc2c1cc1n(c2=O)Cc2cc3cc(OCC[n+]4ccccc4)ccc3nc2-1.[Br-] |  | 0.72 | 0.97 | 1.03 |
| CCc1c2c(nc3ccc(OCCC[n+]4cccc(CO)c4)cc13)-c1cc3c(c(=O)n1C2)COC(=O)[C@]3(O)CC.[Br-] | 1.38 | 0.52 | 0.13 | 0.95 |
| CCc1c2c(nc3ccc(OCCCn4cnc5cncnc54)cc13)-c1cc3c(c(=O)n1C2)COC(=O)[C@]3(O)CC | 1.23 | 0.13 | 0.88 | 0.72 |
| CCc1c2c(nc3ccc(OCCC[n+]4cccc(C(C)=O)c4)cc13)-c1cc3c(c(=O)n1C2)COC(=O)[C@]3(O)CC.[Br-] | 2.81 | 4.82 | 2.24 | 0.86 |
| CCc1c2c(nc3ccc(OCCCn4ccnc4)cc13)-c1cc3c(c(=O)n1C2)COC(=O)[C@]3(O)CC | 0.16 | 0.32 | 0.06 | 1.01 |
